From US20250019379A1, “NEW CRYSTAL FORM OF COMPOUND, AND PREPARATION METHOD THEREFOR AND USE THEREOF” (E-nitiate Biopharmaceuticals (Hangzhou) Co., Ltd, priority 2021, published 2025)

Columns and labels:
[1] = Thermodynamic analysis experiment (heating, XRPD); format: physicochemical; conditions: compared with crystalline form H and crystalline form S
Protocol: Crystalline form H and crystalline form S were heated to appropriate temperatures under N2 protection, and after cooling to room temperature, the XRPD of the solids was measured.

[2] = Suspension competition experiment; format: physicochemical; conditions: compared with crystalline form O and crystalline form P; room temperature and 60° C.
Protocol: Place them at room temperature and 60° C. with magnetic stirring for about 1 hour respectively. […] Solids are used for XRPD testing.

[3] = Pharmacokinetic experiment; format: in vivo; conditions: SD rats, single intragastric administration
Protocol: 12 SD rats were divided into two groups, with 6 rats in each group, half male and half female, and each was given a single intragastric administration; blood was collected through the fundus venous plexus at designated time points, and the plasma was separated and stored in a −80° C. refrigerator.
For the above plasma sample, after protein precipitation with acetonitrile, the supernatant was diluted with water and 5 μL was transferred to LC-MS/MS for detection.

[4] = Dynamic solubility in biological solvents at 37° C.; format: physicochemical
Protocol: (1) Preparation method of FaSSIF: a. Weigh 42 mg NaOH, 395 mg NaH2PO4·H2O and 619 mg NaCl in a 100 mL beaker, add 90 mL deionized water to dissolve: b. Adjust the pH to […]; Dilute to 100 mL with deionized water to obtain FaSSIF blank solvent: c. Weigh 224 mg of Simulated Intestinal Fluid (hereinafter referred to as SIF powder), add 50 mL of the above FaSSIF blank solvent, and stir until completely dissolved; use Dilute the FaSSIF blank solvent to 100 mL to prepare the solvent FaSSIF; d. Let it stand at room temperature for 2 hours before use.
(2) Preparation method of FeSSIF: a. Weigh 404 mg NaOH, 865 mg glacial acetic acid and 1189 mg NaCl in a 100 mL beaker, add 90 mL deionized water to dissolve: b. Adjust the pH to 5.0 with 1N NaOH or 1N HCl; Dilute to 100 mL with deionized water to obtain FeSSIF blank solvent; c. Weigh 1120 mg SIF powder and add 50 mL of the above FeSSIF blank solvent, stir until dissolved: dilute to 100 mL with FeSSIF blank solvent to obtain FeSSIF solvent d. Let it stand at room temperature before use to ensure a clear solution.
(3) Preparation method of SGF: a. Weigh 200 mg NaCl in a 100 mL beaker, add 90 mL deionized water to dissolve; b. Adjust the pH to 1.6 with 1N HCl; dilute to 100 mL with deionized water to obtain SGF Blank solvent; c. Weigh 6 mg SIF powder and add 50 mL of the above SGF blank solvent, stir until dissolved: dilute to 100 mL with SGF blank solvent to prepare the solvent SGF: d. Let it stand at room temperature before use to ensure a clear solution.
(100 rpm). Take 1.3 mL of the suspension (or clarified solution) respectively at 1, 4, and 24 hours, and centrifuge the suspension for 5 minutes. The solid obtained is used for crystal form detection (XRPD), and the supernatant/clarified solution is filtered for solubility testing and pH test.
Solubility data of the samples were collected using a high-performance liquid chromatograph equipped with an image diode array detector.

[5] = Influencing factors test (light, high temperature, high humidity); format: physicochemical
Protocol: The stability of the crystalline form of the present invention under accelerated test conditions was determined. […] Stability testing was conducted under the following conditions, and samples were taken on the 0th day, the 5th day, the 10th day and the 30th day. The content, total impurities, and XRPD patterns of the samples were recorded and compared with the initial data.

[6] = Hygroscopicity experiment; format: physicochemical; conditions: Chinese Pharmacopoeia 2020, General Chapter 9103
Protocol: The hygroscopicity data of the samples were collected using the ADVENTURE series dynamic gas phase adsorption instrument under N2 protection. The sample dosage is about 30 mg.
The hygroscopicity of the above crystalline form was determined with reference to the 2020 edition of the Chinese Pharmacopoeia, General Chapter 9103, Guidelines for Drug Hygroscopicity Tests.

[7] = Solid state stability (HPLC purity, XRPD); format: physicochemical; conditions: for Purity (%): open
Protocol: Purity testing (via HPLC) and crystal form detection (via XRPD) were performed on starting samples, samples stored for one week, and samples stored for two weeks.

[8] = High humidity test (25° C., 90 ± 5% RH), 5 d
[9] = High humidity test (25° C., 90 ± 5% RH), 10 d
[10] = High humidity test (25° C., 90 ± 5% RH), 30 d
[11] = High temperature test (60° C.), 5 d
[12] = High temperature test (60° C.), 10 d
[13] = High temperature test (60° C.), 30 d
[14] = Light test (Illuminance 5000 Lx and UV lamp energy 0.9 W/m^2), 5 d
[15] = Light test (Illuminance 5000 Lx and UV lamp energy 0.9 W/m^2), 10 d
[16] = Light test (Illuminance 5000 Lx and UV lamp energy 0.9 W/m^2), 30 d

thermodynamic stability [1]: thermodynamically more stable | stability in suspension competition [2]: more stable | bioavailability in the body [3]: high bioavailability | Changes in Crystal form ([4]; FaSSIF, 37° C., 1 h): no change | pH ([4]; FaSSIF, 37° C., 1 h): 6.41 | pH ([4]; FaSSIF, 37° C., 4 h): 6.49 | Changes in Crystal form ([4]; FaSSIF, 37° C., 24 h): no change | pH ([4]; FaSSIF, 37° C., 24 h): 6.54 | Changes in Crystal form ([4]; FeSSIF, 37° C., 1 h): no change | pH ([4]; FeSSIF, 37° C., 1 h): 4.92 | pH ([4]; FeSSIF, 37° C., 4 h): 4.95 | Changes in Crystal form ([4]; FeSSIF, 37° C., 24 h): no change | pH ([4]; FeSSIF, 37° C., 24 h): 4.99 | Changes in Crystal form ([4]; SGF, 37° C., 1 h): no change | pH ([4]; SGF, 37° C., 1 h): 2.92 | pH ([4]; SGF, 37° C., 4 h): 2.99 | Changes in Crystal form ([4]; SGF, 37° C., 24 h): no change | pH ([4]; SGF, 37° C., 24 h): 2.95 | crystal form stability when suspended and stirred ([4]; SGF/FeSSIF/FeSSIF, 24 hours, 37° C.): stable | solubility in three solvents (SGF/FaSSIF/FeSSIF), comparison ([4]; within 24 hours at 37° C.): greater than that of crystalline form Q | Content (%) ([5]; 0 d): 99.1% | Total impurity ([5]; 0 d): 0.325% | stability under accelerated test conditions (content, total impurities, XRPD) ([5]; 5000Lx light, 60° C., 90% RH±5% RH, 0, 5, 10, 30 days): better stability | Content (%) [5, 8]: 100.1% | Total impurity [5, 8]: 0.32% | Content (%) [5, 9]: 100.1% | Total impurity [5, 9]: 0.31% | Content (%) [5, 10]: 100.1% | Total impurity [5, 10]: 0.32% | Content (%) [5, 11]: 100.2% | Total impurity [5, 11]: 0.34% | Content (%) [5, 12]: 100.4% | Total impurity [5, 12]: 0.33% | Content (%) [5, 13]: 100.3% | Total impurity [5, 13]: 0.35% | Content (%) [5, 14]: 99.5% | Total impurity [5, 14]: 0.34% | Content (%) [5, 15]: 98.9% | Total impurity [5, 15]: 0.36% | Content (%) [5, 16]: 99.4% | Total impurity [5, 16]: 0.43% | hygroscopicity class [6]: no or almost no hygroscopicity | weight gain (hygroscopicity) [6]: 0.05% | solid-state stability (conclusion) [7]: good solid-state stability | Purity (%) ([7]; 1 week, 25° C./60% RH): 99.64% | Purity (%) ([7]; 1 week, 40° C./75% RH): 99.62% | Purity (%) ([7]; 1 week, 60° C.): 99.62% | Crystal form changes ([7]; 1 week, 25° C./60% RH, 40° C./75% RH, 60° C.): no change | Purity (%) ([7]; 2 week, 25° C./60% RH): 99.60% | Purity (%) ([7]; 2 week, 40° C./75% RH): 99.60% | Purity (%) ([7]; 2 week, 60° C.): 99.66% | Crystal form changes ([7]; 2 week, 25° C./60% RH, 40° C./75% RH, 60° C.): no change | change in the crystalline form (XRPD) ([7]; after one week and two weeks of storage under the selected conditions): no change | change in purity ([7]; after one week and two weeks under the selected conditions): no significant change | Starting sample Purity (%) ([7]; starting sample): 99.59%
Compound: C[C@@H](O)c1nc2cnc3[nH]ccc3c2n1N1CCC(CC#N)CC1 [Crystalline form A, (R)-2-(1-(2-(1-hydroxyethyl)imidazo[4,5-d]pyrrolo[2,3-b]pyridine-1(6H)-yl)piperidin-4-yl)acetonitrile]
